Reference: patent US10703746B2, “Mutant IDH1 inhibitors useful for treating cancer” (THE UNITED STATES OF AMERICA, AS REPRESENTED BY THE …, priority 2014, dated 2020)

Assays:
[1] = target: IDH1 R132H (Homo sapiens, UniProt O75874, R132H); test: IDH1 R132H enzymatic assay (NADPH depletion coupled to diaphorase/resazurin); assay type: biochemical
Method: (§1) Assays were conducted in a 1536-well black solid-bottom plate with a final assay volume of 9 μL.
Specifically, for IDH1 R132H, 3 μL of enzyme (4 mM β-ME, 0.0005 mg/mL IDH1 R132H, 150 mM NaCl, 20 mM Tris pH 7.5, 10 mM MgCl2, 0.05% BSA) were added to the plate, followed by the addition of 23 nL of test compound in DMSO. The plate was lidded and incubated at room temperature for 30 minutes at which time 3 μL of substrate were added (0.016 mM NADPH, 2 mM α-KG, 150 mM NaCl, 20 mM Tris pH 7.5, 10 mM MgCl2, 0.05% BSA). This reaction was incubated at room-temperature for 60 minutes at which time the detection mix was added (0.06 mg/mL diaphorase, 0.036 mM resazurin, 150 mM NaCl, 20 mM Tris pH 7.5, 10 mM MgCl2, 0.05% BSA). […]

[2] = target: IDH1 R132C (Homo sapiens, UniProt O75874, R132C); test: IDH1 R132C enzymatic assay (NADPH depletion coupled to diaphorase/resazurin); assay type: biochemical
Chain of IDH1 R132C (O75874 whole entry R132C): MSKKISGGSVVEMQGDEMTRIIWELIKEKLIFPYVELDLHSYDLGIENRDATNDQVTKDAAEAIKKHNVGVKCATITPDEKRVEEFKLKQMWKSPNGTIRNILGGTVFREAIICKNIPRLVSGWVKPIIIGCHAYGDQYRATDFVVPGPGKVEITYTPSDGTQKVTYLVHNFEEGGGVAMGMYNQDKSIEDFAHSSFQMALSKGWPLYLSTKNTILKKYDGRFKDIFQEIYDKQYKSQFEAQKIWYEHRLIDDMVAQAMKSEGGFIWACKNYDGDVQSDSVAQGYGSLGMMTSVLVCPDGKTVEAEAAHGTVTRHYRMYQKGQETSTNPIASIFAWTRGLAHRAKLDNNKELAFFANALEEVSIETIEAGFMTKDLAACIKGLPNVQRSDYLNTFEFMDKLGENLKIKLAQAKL
Method: as §1
For IDH1 R132C, 3 μL of enzyme (0.00032 mg/mL IDH1 […], 10% glycerol, 50 mM potassium phosphate pH 6.5, 5 mM MgCl2, 0.03% BSA) were added to the plate, followed by the addition of 23 nL of test compound in DMSO. The plate was lidded and incubated at room temperature for 30 minutes at which time 3 μL of substrate were added (0.012 mM NADPH, 0.6 mM α-KG, 10% glycerol, 50 mM potassium phosphate pH 6.5, 5 mM MgCl2, 0.03% BSA). […]

[3] = IDH1 R132H enzymatic inhibition, IC50 class
[4] = IDH1 R132C enzymatic inhibition, IC50 class
[5] = enzymatic inhibition, IDH1 R132H
[6] = enzymatic inhibition, IDH1 R132C

Chain of IDH1 R132H (O75874 whole entry R132H): as the sequence (O75874 whole entry R132C) above, with C132H counted along it

Compound | IC50 [1, 3] [nM] | IC50 [2, 4] [nM] | IC50 [1, 5] [nM] | IC50 [2, 6] [nM]
CCOc1ccc(Cl)cc1-n1c(C=C(C)C)c(C(=O)N2CCNCC2)cc(-c2nc(-c3ccc(Cl)cc3)cs2)c1=O [Compound 463] |  |  | < 300 | < 300
CCc1cccc(CC)c1-n1c(O)c(C(=O)CC(C)C)cc(-c2nc(-c3ccc(Cl)cc3)cs2)c1=O [Compound 392] | 5000 to 20000 | 5000 to 20000 |  | 
CN1CCN(Cc2ccccc2-n2c3c(cc(-c4nc(-c5ccc(Cl)cc5)cs4)c2=O)C(=O)CCC3)CC1 [Compound 440] |  |  | 5000 to 20000 | 5000 to 20000
Cc1ccccc1-n1c(C)c(C(=O)N2CCNCC2)cc(-c2nc(-c3ccc(Cl)cc3)cs2)c1=O [Compound 470] |  |  | 1000 to 5000 | 5000 to 20000
CCc1cccc(CC)c1-n1c(C)c(C(=O)O)cc(-c2nc(-c3ccc(Cl)cc3)cs2)c1=O [Compound 143] | 5000 to 20000 | 5000 to 20000 |  | 
CCc1cccc(CC)c1-n1c(C=C(C)C)c(C(=O)N2C[C@H]3C[C@@H]2CN3)cc(-c2nc(-c3ccc(Cl)cc3)cs2)c1=O [Compound 447] |  |  | < 300 | < 300
CC(C)=Cc1c(C(=O)N2CCNCC2)cc(-c2nc(-c3ccc(Cl)cc3)cs2)c(=O)n1-c1cc(Cl)ccc1OC(C)C [Compound 553] |  |  | < 300 | < 300
COc1cccc(OC)c1-n1c(C=C(C)C)c(C(=O)N2CCNCC2)cc(-c2nc(-c3ccc(Cl)cc3)cs2)c1=O [Compound 467] |  |  | < 300 | < 300
CCc1cccc(CC)c1-n1c(C=C(C)C)c(C(=O)N2CCNCC23COC3)cc(-c2nc(-c3ccc(Cl)cc3)cs2)c1=O [Compound 443] |  |  | 300 to 1000 | < 300
CC1(C)CC(=O)c2cc(-c3nc(-c4ccc(Cl)cc4)cs3)c(=O)n(-c3ccccc3C(=O)O)c2C1 [Compound 227] | 5000 to 20000 | 5000 to 20000 |  | 
COc1ccc(OC)c(-n2c3c(cc(-c4nc(-c5ccc(Cl)cc5)cs4)c2=O)C(=O)CNC3)c1 [Compound 280] | 5000 to 20000 | 5000 to 20000 |  | 
CCc1cccc(CC)c1-n1c(C=C(C)C)c(C(=O)N2CCNC(CC)C2)cc(-c2nc(-c3ccc(Cl)cc3)cs2)c1=O (centres unmarked) [Compound 550] |  |  | < 300 | < 300
Cc1ccc(Cl)c(-n2c3c(cc(-c4nc(-c5ccc(Cl)cc5)cs4)c2=O)C(=O)CC(C)(C)C3)c1 [Compound 613] |  |  | 300 to 1000 | 300 to 1000
CCc1cccc(CC)c1-n1c(C)c(C(=O)N2CCN[C@@H](C(=O)OC)C2)cc(-c2nc(-c3ccc(Cl)cc3)cs2)c1=O [Compound 83] | 1000 to 5000 | 300 to 1000 |  | 
CCc1cccc(CC)c1-n1c(CC(C)C)c(C(=O)N2CCNCC2)cc(-c2nc(-c3ccc(Cl)c(F)c3)c(C)s2)c1=O [Compound 608] |  |  | < 300 | < 300
CCc1cccc(CC)c1-n1c(C=C(C)C)c(C(=O)N2CCNC(=O)CC2)cc(-c2nc(-c3ccc(Cl)cc3)cs2)c1=O [Compound 537] |  |  | < 300 | < 300
CCc1cccc(CC)c1-n1c(C2CCC2)c(C(=O)N2CCNCC2)cc(-c2nc(-c3ccc(Cl)cc3)cs2)c1=O [Compound 434] |  |  | 300 to 1000 | < 300
COc1ccc(N)cc1-n1c2c(cc(-c3nc(-c4ccc(Cl)cc4)cs3)c1=O)C(=O)CC(C)(C)C2 [Compound 122] | 1000 to 5000 | 300 to 1000 |  | 
CCc1cccc(CC)c1-n1c(CC(C)C)c(C(=O)N2CCCC2CO)cc(-c2nc(-c3ccc(Cl)cc3)cs2)c1=O (centres unmarked) [Compound 243] | 1000 to 5000 | 1000 to 5000 |  | 
CCc1cccc(CC)c1-n1c(C)c(C(=O)NCCCN)cc(-c2nc(-c3ccc(Cl)cc3)cs2)c1=O [Compound 6] | 1000 to 5000 | 1000 to 5000 |  | 
COc1ccc(OC)c(-n2c3c(cc(-n4cnc(-c5ccccc5)c4)c2=O)C(=O)CC(C)(C)C3)c1 [Compound 154] | 5000 to 20000 | 5000 to 20000 |  | 
CCc1cccc(CC)c1-n1c(CC(C)C)c(C(=O)N2CC(C(=O)OC)NCC2C)cc(-c2nc(-c3ccc(Cl)cc3)cs2)c1=O (centres unmarked) [Compound 113] | 1000 to 5000 | 300 to 1000 |  | 

The next lines start with the values.

IC50 [1, 3] [nM] | IC50 [2, 4] [nM] | IC50 [1, 5] [nM] | IC50 [2, 6] [nM] | Compound
1000 to 5000 | 1000 to 5000 |  |  | COc1ccc(OC)c(-n2c3c(cc(-c4nc(-c5ccc(Cl)cc5)cs4)c2=O)C(=O)NCC3)c1 [Compound 244]
1000 to 5000 | 1000 to 5000 |  |  | COc1cccc(C)c1-n1c2c(cc(-c3nc(-c4ccc(Cl)cc4)cs3)c1=O)C(=O)CCC2 [Compound 375]
1000 to 5000 | < 300 |  |  | CCc1cccc(CC)c1-n1c(CC(C)C)c(C(=O)N2CCNCC2C(=O)OC)cc(-c2nc(-c3ccc(Cl)cc3)cs2)c1=O (centres unmarked) [Compound 147]
1000 to 5000 | 1000 to 5000 |  |  | COc1ccc(OC)c(-n2c3c(cc(-c4nc(-c5ccc(Cl)cc5)cs4)c2=O)C(=O)CCC3)c1 [Compound 129]
1000 to 5000 | 1000 to 5000 |  |  | CCc1ncc(F)cc1-n1c(C=C(C)C)c(C(=O)N2CCNCC2)cc(-c2nc(-c3ccc(C(F)F)cn3)cs2)c1=O [Compound 619]
< 300 | < 300 |  |  | CCOc1ccc(Cl)cc1-n1c(C=C(C)C)c(C(=O)N2CCNCC2)cc(-c2nc(-c3ccc(C(F)(F)F)cc3)cs2)c1=O [Compound 665]
< 300 | < 300 |  |  | CCc1cccc(CC)c1-n1c(CC2CCCC2)c(C(=O)N2CCNCC2)cc(-c2nc(-c3ccc(Cl)cc3)cs2)c1=O [Compound 622]
< 300 | 300 to 1000 |  |  | COc1ccc(Cl)c(-n2c(C=C(C)C)c(C(=O)N3CCNCC3)cc(-c3ccn(-c4ccc(Cl)cc4)n3)c2=O)c1 [Compound 389]
< 300 | < 300 |  |  | CCc1cccc(CC)c1-n1c(CCOC)c(C(=O)N2CCNCC2)cc(-c2nc(-c3ccc(Cl)cc3)cs2)c1=O [Compound 278]
300 to 1000 | 300 to 1000 |  |  | CC1(C)CC(=O)c2cc(-c3nc(-c4ccc(Cl)cc4)cs3)c(=O)n(-c3ccccc3C3CC3)c2C1 [Compound 50]
300 to 1000 | 300 to 1000 |  |  | CCc1cccc(CC)c1-n1c(C(C)(C)F)c(C(=O)N2CCNCC2)cc(-c2nc(-c3ccc(Cl)cc3)cs2)c1=O [Compound 664]
1000 to 5000 | 300 to 1000 |  |  | CCCSc1ccccc1-n1c2c(cc(-c3nc(-c4ccc(Cl)cc4)cs3)c1=O)C(=O)CC(C)(C)C2 [Compound 135]
1000 to 5000 | 1000 to 5000 |  |  | CCc1cccc(CC)c1-n1c2c(cc(-c3nc(-c4cccc(F)c4)cs3)c1=O)C(=O)CC(C)(C)C2 [Compound 209]
< 300 | 1000 to 5000 |  |  | CCc1cccc(CC)c1-n1c(C=C(C)C)c(C(=O)N2CCNCC2)cc(-c2nn(-c3ccc(Cl)cc3)cc2C)c1=O [Compound 638]
1000 to 5000 | 1000 to 5000 |  |  | CCc1cccc(CC)c1-n1c(C(C)C)c(C(=O)N[C@H](C)CO)cc(-c2nc(-c3ccc(Cl)cc3)cs2)c1=O [Compound 47]
300 to 1000 | 300 to 1000 |  |  | CC1(C)CC(=O)c2cc(-c3nc(-c4ccc(C(F)(F)F)cc4)cs3)c(=O)n(-c3ccccc3C(F)(F)F)c2C1 [Compound 85]
300 to 1000 | 1000 to 5000 |  |  | CCc1cccc(CC)c1-n1c(C)c(C(=O)NCCN)cc(-c2nc(-c3ccc(Cl)cc3)cs2)c1=O [Compound 303]
300 to 1000 | < 300 |  |  | CCc1cccc(CC)c1-n1c(CC(C)C)c(C(=O)N2CCNCC2C)cc(-c2nc(-c3ccc(Cl)cc3)cs2)c1=O (centres unmarked) [Compound 43]
< 300 | < 300 |  |  | CCc1cccc(CC)c1-n1c(C=C(C)C)c(C(=O)N2CCNC(=O)C2)cc(-c2nc(-c3ccc(Cl)cc3)cs2)c1=O [Compound 358]
< 300 | < 300 |  |  | CCc1cccc(CC)c1-n1c(CC(C)C)c(C(=O)N2CCNCC2)cc(-c2nc(-c3ccc(Cl)cc3)cs2)c1=O [Compound 231]
< 300 | < 300 |  |  | CCc1cccc(CC)c1-n1c(C=C(C)C)c(C(=O)N2CCNCC2(C)C)cc(-c2nc(-c3ccc(Cl)cc3)cs2)c1=O [Compound 366]
